Here are results for one compound from ChEMBL document CHEMBL6103588, “Promising thiazolidinedione-thiazole based multi-target and neuroprotective hybrids for Alzheimer's disease: Design, synthesis, in-vitro, in-vivo and in-silico studies” (Eur J Med Chem, 2025).

The test system of one data set is PC-12. Description: Neuroprotective activity against H2O2-induced rat PC12 cells assessed as protection against H2O2-induced oxidative stress by measuring cell viability at 25 uM pretreated for 24 hr followed by H2O2 addition and measured after 24 hrs by MTT reagent based spectrophotometric analysis (reference value: 47.32 %). The format is functional. The note with it: time 48 hrs. (In general: Tetrazolium dyes change colour on reduction, which living cells bring about.)

The target of data set [1] is T1, Polyunsaturated fatty acid 5-lipoxygenase (Homo sapiens, UniProt P09917).
T1 sequence (P09917 whole entry): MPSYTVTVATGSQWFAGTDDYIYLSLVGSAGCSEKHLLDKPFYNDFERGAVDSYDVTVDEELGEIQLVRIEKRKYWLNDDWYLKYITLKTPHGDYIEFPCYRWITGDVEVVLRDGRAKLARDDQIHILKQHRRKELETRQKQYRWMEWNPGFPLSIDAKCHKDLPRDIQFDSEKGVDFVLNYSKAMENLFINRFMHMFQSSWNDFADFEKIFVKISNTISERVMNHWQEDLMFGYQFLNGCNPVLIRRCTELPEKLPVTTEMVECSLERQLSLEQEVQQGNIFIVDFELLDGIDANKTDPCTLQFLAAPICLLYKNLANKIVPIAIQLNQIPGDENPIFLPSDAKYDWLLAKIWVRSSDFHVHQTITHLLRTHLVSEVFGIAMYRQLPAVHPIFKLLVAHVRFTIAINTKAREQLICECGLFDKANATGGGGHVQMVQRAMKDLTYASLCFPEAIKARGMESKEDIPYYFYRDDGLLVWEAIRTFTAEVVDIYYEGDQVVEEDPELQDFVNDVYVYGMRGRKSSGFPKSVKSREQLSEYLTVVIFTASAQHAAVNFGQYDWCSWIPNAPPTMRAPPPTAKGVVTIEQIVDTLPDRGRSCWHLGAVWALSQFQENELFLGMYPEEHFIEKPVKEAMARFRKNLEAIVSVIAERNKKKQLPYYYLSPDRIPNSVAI
Kind of data set: Inhibition of 5-LOX (unknown origin) using linoleic acid as substrate incubated for 5 mins followed by substrate addition.

A short description of data set [2]: Acute toxicity in male Swiss albino mouse assessed as survival time at 450 mg/kg BW, po administered as single dose via gavage by up-and-down method. The data set is classed as organism-based. The note with it: in vivo.
The nature of data set [3]: Acute toxicity in male Swiss albino mouse assessed as survival time at 1500 mg/kg BW, po administered as single dose via gavage by up-and-down method. The format is organism-based. Conditions: in vivo.
The nature of data set [4]: Acute toxicity in male Swiss albino mouse assessed as lethargy at 450 mg/kg BW, po administered as single dose via gavage measured after 1 hrs by up-and-down method. The note with it: in vivo. The format is organism-based.
Data set [5] can be described thus: Acute toxicity in male Swiss albino mouse assessed as ataxia at 1200 mg/kg BW, po administered as single dose via gavage measured after 20 mins by up-and-down method. The data set is classed as organism-based. Conditions: in vivo.
In another data set the target is Cholinesterase (Equus caballus, UniProt P81908). Description: Inhibition of equine serum BuChE using butyrylthiocholine iodide as substrate pre-incubated for 10 mins followed by substrate addition and measured after 15 mins by DTNB reagent based Ellman's method. Background: Ellman's reagent forms a yellow product with free thiols.
Chain of Cholinesterase (P81908 whole entry): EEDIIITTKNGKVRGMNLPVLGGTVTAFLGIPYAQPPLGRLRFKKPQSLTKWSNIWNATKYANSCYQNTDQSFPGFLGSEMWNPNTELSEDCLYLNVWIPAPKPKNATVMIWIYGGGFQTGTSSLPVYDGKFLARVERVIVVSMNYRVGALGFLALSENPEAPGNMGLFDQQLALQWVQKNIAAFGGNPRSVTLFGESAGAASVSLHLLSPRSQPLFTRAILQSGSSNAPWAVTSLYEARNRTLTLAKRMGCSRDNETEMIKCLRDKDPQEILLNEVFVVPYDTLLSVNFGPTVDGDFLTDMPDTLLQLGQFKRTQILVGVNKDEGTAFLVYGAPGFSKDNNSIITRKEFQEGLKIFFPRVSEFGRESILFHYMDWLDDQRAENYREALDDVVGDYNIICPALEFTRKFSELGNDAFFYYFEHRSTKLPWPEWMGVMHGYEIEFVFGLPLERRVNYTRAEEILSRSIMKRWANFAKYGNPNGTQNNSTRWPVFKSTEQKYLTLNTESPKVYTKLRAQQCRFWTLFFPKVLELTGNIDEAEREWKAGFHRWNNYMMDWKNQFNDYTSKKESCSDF
Data set [6] addresses Acetylcholinesterase (Electrophorus electricus) (UniProt O42275). Kind of data set: Mixed-type inhibition of electric eel AChE using acetylthiocholine iodide as substrate assessed as decrease in Vmax […] at 0.036 to 0.144 uM preincubated for 15 mins by Lineweaver-burk plot analysis. Conditions: dose 0.036-0.144 µM.
The nature of data set [7]: Acute toxicity in male Swiss albino mouse assessed as seizures at 1200 mg/kg BW, po administered as single dose via gavage measured after 20 mins by up-and-down method. The format is organism-based. Conditions: in vivo.
A further data set deals with Acetylcholinesterase (Electrophorus electricus, UniProt O42275). Kind of data set: Inhibition of Electric eel AChE using acetylthiocholine iodide as substrate pre-incubated for 10 mins followed by substrate addition and measured after 15 mins by DTNB reagent based Ellman's method. The note with it: read-out: IC50.
Chain of Acetylcholinesterase (O42275 whole entry): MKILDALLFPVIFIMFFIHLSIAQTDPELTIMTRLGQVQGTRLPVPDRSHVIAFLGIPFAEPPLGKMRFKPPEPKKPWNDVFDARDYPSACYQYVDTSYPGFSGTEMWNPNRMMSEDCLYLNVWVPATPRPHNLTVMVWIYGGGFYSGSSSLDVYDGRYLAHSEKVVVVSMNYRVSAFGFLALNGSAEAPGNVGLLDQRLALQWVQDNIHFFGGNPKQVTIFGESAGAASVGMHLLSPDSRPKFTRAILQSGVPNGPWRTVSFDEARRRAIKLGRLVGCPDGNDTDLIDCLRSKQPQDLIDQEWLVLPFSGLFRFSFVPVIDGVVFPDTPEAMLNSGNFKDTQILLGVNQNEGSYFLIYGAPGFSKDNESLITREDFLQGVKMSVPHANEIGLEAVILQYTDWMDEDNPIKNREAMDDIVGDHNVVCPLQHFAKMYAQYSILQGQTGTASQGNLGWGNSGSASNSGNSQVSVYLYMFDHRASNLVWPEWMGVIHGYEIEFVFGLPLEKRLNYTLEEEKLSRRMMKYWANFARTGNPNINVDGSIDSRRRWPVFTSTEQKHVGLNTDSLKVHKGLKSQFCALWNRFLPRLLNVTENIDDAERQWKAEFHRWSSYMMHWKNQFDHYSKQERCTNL
Data set [8] can be described thus: Acute toxicity in male Swiss albino mouse assessed as mortality rate at 900 mg/kg BW, po administered as single dose via gavage measured after 48 hrs by up-and-down method relative to control. The data set is classed as organism-based. Conditions: in vivo.
The nature of data set [9]: Acute toxicity in male Swiss albino mouse assessed as survival time at 1200 mg/kg BW, po administered as single dose via gavage by up-and-down method. The note with it: in vivo. The data set is classed as organism-based.
Data set [10] can be described thus: Acute toxicity in male Swiss albino mouse assessed as mortality rate at 1200 mg/kg BW, po administered as single dose via gavage measured after 48 hrs by up-and-down method relative to control. Conditions: in vivo. The format is organism-based.
A short description of data set [11]: Lipophilicity, logP of compound. The format is physicochemical. The note with it: octanol/water.
The test system of data set [12] is Mus musculus. Description: Antioxidant activity against scopolamine-induced Albino mouse assessed as decrease in MDA level in brain at 5 mg/kg measured after 24 hrs. The format is functional.
Data set [13] can be described thus: Neurotoxicity against human SH-SY5Y cells assessed as reduction in cell viability upto 50 uM incubated for 24 hrs by MTT assay. The format is toxicity, cell-based.
Data set [14] is described as follows: Acute toxicity in male Swiss albino mouse assessed as mortality rate at 450 to 50 mg/kg BW, po administered as single dose via gavage measured after 48 hrs by up-and-down method relative to control. The data set is classed as organism-based. Conditions: in vivo, at 50 to 450 mg/kg, dose 450-50 mg/kg.
A short description of data set [15]: Acute toxicity in male Swiss albino mouse assessed as lethargy at 1200 mg/kg BW, po administered as single dose via gavage measured after 20 mins by up-and-down method. Conditions: in vivo. The format is organism-based.
Data set [16] is described as follows: Acute toxicity in male Swiss albino mouse assessed as survival time at 250 mg/kg BW, po administered as single dose via gavage by up-and-down method. The data set is classed as organism-based. The note with it: in vivo.
In data set [17] the test system is Mus musculus. Kind of data set: Antioxidant activity against scopolamine-induced Albino mouse assessed as increase in catalase activity in brain at 5 mg/kg measured after 24 hrs. The data set is classed as functional, organism-based.
Data set [18] deals with T2, Amine oxidase [flavin-containing] B (Homo sapiens, UniProt P27338).
T2 sequence (P27338 whole entry): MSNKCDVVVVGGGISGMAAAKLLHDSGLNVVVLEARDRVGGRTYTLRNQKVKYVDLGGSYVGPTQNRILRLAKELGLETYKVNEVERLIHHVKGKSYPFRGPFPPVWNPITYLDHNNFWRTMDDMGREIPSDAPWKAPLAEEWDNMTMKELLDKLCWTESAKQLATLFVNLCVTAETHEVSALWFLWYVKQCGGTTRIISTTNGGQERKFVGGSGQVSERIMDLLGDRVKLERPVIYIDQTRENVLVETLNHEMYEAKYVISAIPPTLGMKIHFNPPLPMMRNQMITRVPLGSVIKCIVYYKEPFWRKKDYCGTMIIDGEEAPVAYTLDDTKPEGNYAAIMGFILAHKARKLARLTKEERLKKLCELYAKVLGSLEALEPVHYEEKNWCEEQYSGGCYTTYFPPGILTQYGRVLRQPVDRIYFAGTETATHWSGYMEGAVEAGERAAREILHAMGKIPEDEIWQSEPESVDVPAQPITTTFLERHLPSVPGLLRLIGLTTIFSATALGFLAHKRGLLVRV
Kind of data set: Inhibition of human MAO-B using tyramine/benzylamine as substrate measured after 30 mins by fluorometric assay.

A short description of data set [19]: Acute toxicity in male Swiss albino mouse assessed as signs of discomfort at 1200 mg/kg BW, po administered as single dose via gavage measured after 20 mins by up-and-down method. The data set is classed as organism-based. Conditions: in vivo.

Calls of active or inactive are those of the source. The rule behind the calls is not given here.

Chain of Acetylcholinesterase (Electrophorus electricus) (O42275 24-633 limits assumed): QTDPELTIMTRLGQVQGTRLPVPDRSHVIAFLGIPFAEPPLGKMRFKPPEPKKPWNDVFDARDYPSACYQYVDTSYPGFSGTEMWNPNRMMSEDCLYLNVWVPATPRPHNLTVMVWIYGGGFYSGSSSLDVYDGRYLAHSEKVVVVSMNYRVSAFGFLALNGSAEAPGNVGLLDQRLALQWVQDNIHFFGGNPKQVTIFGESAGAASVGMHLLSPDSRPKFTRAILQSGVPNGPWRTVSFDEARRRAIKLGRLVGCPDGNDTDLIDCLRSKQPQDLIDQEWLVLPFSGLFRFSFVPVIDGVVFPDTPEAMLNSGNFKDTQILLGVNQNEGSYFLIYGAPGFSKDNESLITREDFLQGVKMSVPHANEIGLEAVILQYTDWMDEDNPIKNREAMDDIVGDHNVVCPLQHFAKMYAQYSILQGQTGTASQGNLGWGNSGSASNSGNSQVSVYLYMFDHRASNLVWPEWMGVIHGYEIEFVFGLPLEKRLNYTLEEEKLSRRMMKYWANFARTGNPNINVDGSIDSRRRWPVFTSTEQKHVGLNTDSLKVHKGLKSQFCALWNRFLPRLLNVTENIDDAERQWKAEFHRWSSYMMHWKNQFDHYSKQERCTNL

On to `COc1cc(/C=C/C(=O)Nc2ccc3sc(NCN4C(=O)CSC4=O)nc3c2)ccc1O`, for which the Activity with PC-12 is 83.01%; in data set [4], “Toxic”; in data set [5], “Toxic”; in data set [7], “Toxic”; with Mus musculus [12], 1.95 nmol/mL; in [13], “Non-toxic”. Besides, the Activity result in [15] and in data set [19] was “Toxic” each time. The 50% inhibitory concentration (IC50) in data set [1] is 180 nM; against Cholinesterase, 9810 nM; at Acetylcholinesterase it was 72 nM; in data set [18] it was 24 nM. Besides, the Time was more than 48 h in data set [2], 15 min in data set [3], 40 min in data set [9] and more than 48 h in [16]. The inhibition result in data set [6] was “Active; Inhibition Of Free Enzyme And Enzyme-Substrate Complex”. Further, the figures for the mortality at 48 h in [8], in [10] and in [14] were 66.7%, 80% and 0%, respectively. The same compound displayed a lipophilicity (logP) in [11] of 3.34. For the same compound, the result with Mus musculus [17] was Active.

For orientation: IC50 means the midpoint of a concentration-inhibition curve. The term mortality denotes the share of the test organisms that died. As a reminder, the logP is a log measure of how a compound divides between an organic and an aqueous phase. Higher therefore signals higher lipophilicity.
